Our source for the Ki values is patent publication US10357481B2 (MERCK SHARP & DOHME CORP., priority 2015, dated 2019).

In this assay the target is T1, human PDE2A1 (Homo sapiens, UniProt O00408).
T1 construct: GST; purchased BPS Bioscience (San Diego, Calif.) 60020; host or cells: insect cells
The assay can be described thus: IMAP FP PDE selectivity panel, human PDE2A1. In kind it is biochemical. Conditions: Lab B; read-out: Human PDE2 Ki (nM) Lab B. The method in brief:
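Human PDE2A1 tested alongside PDE1–11 by IMAP fluorescence polarization at room temperature. Substrate was 50 nM FAM-cAMP plus 1000 nM cGMP, buffer pH 7.2 with MgCl2 and DTT, enzyme set for 20% conversion. Ten 3-fold compound dilutions; 60 min reaction, then IMAP binding solution, 1 h, parallel/perpendicular fluorescence read.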

T1 sequence (O00408 1-920 isoform O00408-2): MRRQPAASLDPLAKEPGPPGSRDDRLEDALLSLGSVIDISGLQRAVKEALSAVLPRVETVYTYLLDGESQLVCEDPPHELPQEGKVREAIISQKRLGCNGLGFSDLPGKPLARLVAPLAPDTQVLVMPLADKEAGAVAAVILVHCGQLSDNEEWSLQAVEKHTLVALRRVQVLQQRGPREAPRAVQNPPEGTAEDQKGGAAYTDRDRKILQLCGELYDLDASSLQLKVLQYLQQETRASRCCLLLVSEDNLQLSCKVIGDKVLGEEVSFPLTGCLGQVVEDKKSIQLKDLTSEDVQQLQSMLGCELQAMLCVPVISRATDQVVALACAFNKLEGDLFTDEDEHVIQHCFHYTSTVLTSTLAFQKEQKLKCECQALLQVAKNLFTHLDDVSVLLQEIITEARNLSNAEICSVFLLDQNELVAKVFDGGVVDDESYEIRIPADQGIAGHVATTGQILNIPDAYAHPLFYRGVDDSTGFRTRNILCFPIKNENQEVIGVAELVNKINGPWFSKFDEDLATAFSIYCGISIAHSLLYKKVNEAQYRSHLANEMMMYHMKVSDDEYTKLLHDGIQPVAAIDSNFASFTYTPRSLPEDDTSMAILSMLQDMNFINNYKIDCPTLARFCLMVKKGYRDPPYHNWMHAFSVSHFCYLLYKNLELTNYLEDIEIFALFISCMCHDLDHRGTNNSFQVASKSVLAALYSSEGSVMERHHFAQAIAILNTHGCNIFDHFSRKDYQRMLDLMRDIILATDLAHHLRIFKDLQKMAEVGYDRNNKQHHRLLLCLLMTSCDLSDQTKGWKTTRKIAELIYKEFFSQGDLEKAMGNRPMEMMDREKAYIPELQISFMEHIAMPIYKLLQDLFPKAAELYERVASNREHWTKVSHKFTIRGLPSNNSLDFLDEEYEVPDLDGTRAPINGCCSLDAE

For orientation: Ki means the dissociation constant of the complex between target and ligand, obtained from inhibition or displacement. As for `Cc1cc(NC(c2ccc(OC(F)F)cc2)C(C)(C)O)n2ncnc2n1` (single isomer, unassigned) [Example 110, (1S or R)-1-[4-(Difluoro-methoxy)phenyl]-2-methyl-1-[(5-methyl[1,2,4]triazolo[1,5-a]pyrimidin-7-yl)amino]propan-2-ol], the Ki was more than 2960 nM.
For the molecule `CN(C)c1cc(N[C@H](c2ccc(C(F)(F)F)c(F)c2)C(C)(C)O)n2ncnc2n1` (single isomer, unassigned) [Example 243], the Ki was more than 2960 nM.
On to `Cc1cc(N[C@H](C)c2ccc(S(F)(F)(F)(F)F)cc2)n2ncnc2n1` [Example 12, 5-Methyl-N-{(1R)-1-[4-(pentafluoro-λ^6-sulfanyl)phenyl)ethyl} [1,2,4]triazolo[1,5-a]pyrimidin-7-amine], for which the Ki was 68 nM.
The result for `CC(C)(O)C(Nc1cc(C(F)F)nc2ncnn12)c1ccc(OC(F)F)c(F)c1` (single isomer, unassigned) [Example 189, (1S or R)-[4-(Difluoromethoxy)-3-fluorophenyl]-1-{[5-(difluoromethyl) [1,2,4]triazolo [1,5-a]pyrimidin-7-yl]amino}-2-methylpropan-2-ol] reads 17 nM; that for `CC(C)(O)C(Nc1cc(C(F)(F)F)nc2ncnn12)c1ccc(SC(F)(F)F)cc1` (single isomer, unassigned) [Example 221, (R)- or (S)-2-Methyl-1-(5-(trifluoromethyl)-[1,2,4]triazolo [1,5-a]pyrimidin-7-ylamino)-1-(4-(trifluoromethylthio)phenyl)propan-2-ol], more than 2960 nM; that for `Cc1cc(NC(c2ccc(CC(F)(F)F)cc2)C(C)(C)O)n2ncnc2n1` (single isomer, unassigned) [Example 119, (1R or S)-2-Methyl-1-[(5-methyl [1,2,4]triazolo [1,5-a]pyrimidin-7-yl)amino]-1-[4-(2,2,2-trifluoroethyl)phenyl]propan-2-ol], 15 nM.
The result for `CC(C)(O)[C@@H](Nc1cncc2ncnn12)c1ccc(OC(F)(F)F)c(F)c1` [Example 286, (1S)-1-[3-Fluoro-4-(trifluoromethoxy)phenyl]-2-methyl-1-([1,2,4]triazolo[1,5-a]pyrazin-5-ylamino)propan-2-ol] reads 209 nM.
For the molecule `CCC(O)(CC)C(Nc1cc(C(F)(F)F)nc2ncnn12)c1ccc(C(F)(F)F)c(F)c1` (single isomer, unassigned) [Example 220, (S)- or (R)-3-((3-Fluoro-4-(trifluoromethyl)phenyl)(5-(trifluoromethyl)-[1,2,4]triazolo [1,5-a]pyrimidin-7-ylamino)methyl) pentan-3-ol], the Ki was approximately 2110 nM.
The result for `Cc1cc(N[C@@H](c2ccc(S(F)(F)(F)(F)F)cc2)C2CC2)n2ncnc2n1` [Example 37, N-{(1R)-Cyclopropyl[4-(pentafluoro-λ^6-sulfanyl)phenyl]methyl}-5-methyl[1,2,4]triazolo[1,5-a] pyrimidin-7-amine] reads 22 nM; that for `CC(C)(O)[C@@H](Nc1cc(C(F)F)cc2ncnn12)c1ccc(OC(F)(F)F)c(F)c1` [Example 279, (S)-1-((7-(Difluoromethyl)-[1,2,4]triazolo[1,5-a]pyridin-5-yl)amino)-1-(3-fluoro-4-(trifluoromethoxy)phenyl)-2-methylpropan-2-ol], 41 nM; that for `CC(C)(C)[C@@H](Nc1cc(N)nc2ncnn12)c1ccc(C(F)(F)F)c(F)c1` [Example 240, (R)-N^7-(1-(3-Fluoro-4-(trifluoromethyl)phenyl)-2,2-dimethylpropyl)-[1,2,4]triazolo [1,5-a]pyrimidine-5,7-diamine], 108 nM.
Consider `CN(C)c1cc(N[C@@H](c2ccc(C(F)(F)F)c(F)c2)C(C)(C)C)n2ncnc2n1` [Example 242, (R)-N^7-(1-(3-Fluoro-4-(trifluoromethyl)phenyl)-2,2-dimethylpropy1)-N^5,N^5-dimethyl-[1,2,4]triazolo [1,5-a]pyrimidine-5,7-diamine], for which the Ki stood at 616 nM.
As to `Cc1cc(NC(c2ccc(C(F)(F)F)nc2)C(C)(C)O)n2ncnc2n1` (single isomer, unassigned) [Example 226, (S)- or (R)-2-Methyl-1-(5-methyl-[1,2,4]triazolo [1,5-a]pyrimidin-7-ylamino)-1-(6-(trifluoromethyl)pyridin-3-yl) propan-2-ol], the inhibitory constant (Ki) is 356 nM.
Under `Cc1nc2ncnn2c(N[C@H](C)c2ccc(C(F)(F)F)cc2)c1C` [Example 85, 5,6-Dimethyl-N-{(1R)-1-[4-(trifluoromethyl)phenyl]ethyl}[1,2,4]triazolo[1,5-a]pyrimidin-7-amine] stands approximately 1160 nM; under `Cc1cc(NC(c2ccc(OC(F)(F)F)c(F)c2)C(C)(C)O)n2nc(C)nc2n1` (single isomer, unassigned) [Example 132, (1S or R)-1-[(2,5-Dimethyl[1,2,4]triazolo[1,5-a]pyrimidin-7-yl)amino]-1-[3-fluoro-4-(trifluoromethoxy)phenyl]-2-methylpropan-2-ol], more than 2960 nM.
For `Cc1cc(N[C@@H](c2ccc(C(F)(F)F)cc2)C(C)C)n2ncnc2n1` [Example 19, 5-Methyl-N-{(1R)-2-methyl-1-[4-(trifluoromethyl)phenyl]propyl} [1,2,4]triazolo[1,5-a]pyrimidin-7-amine], the Ki is 36 nM.
Under `CC(C)(O)[C@@H](Nc1cc(CO)cc2ncnn12)c1ccc(OC(F)(F)F)cc1F` [Example 273, (1S)-1-[2-Fluoro-4-(trifluoromethoxy)phenyl]-1-{[7-(hydroxymethyl)[1,2,4]triazolo [1,5-a]pyridin-5-yl]amino}-2-methylpropan-2-ol] stands 102 nM.
Under `Cc1cc(NC(c2ccc(OC(F)(F)F)cc2F)C(C)(C)O)n2nc(N)nc2n1` (stereo in doubt) [Example 258, (1S)-1-[(2-Amino-5-methyl[1,2,4]triazolo[1,5-a]pyrimidin-7-yl)amino]-1-[2-fluoro-4-(trifluoromethoxy)phenyl]-2-methylpropan-2-ol] stands 6 nM.
Under `Cc1cc(N[C@@H](c2ccc(C(F)(F)F)c(F)c2)C(C)(C)C)n2nc(CF)nc2n1` [Example 191, 2-(Fluoromethyl)-N-{(1R)-1-[3-fluoro-4-(trifluoromethyl)phenyl]-2,2-dimethylpropyl}-5-methyl[1,2,4]triazolo[1,5-a]pyrimidin-7-amine] stands 67 nM.
On to `Cc1cc(NC2(c3ccc(SC(F)(F)F)c(F)c3)CCC2)n2ncnc2n1` [Example 66, N-(1-{3-Fluoro-4-[(trifluoromethyl)sulfanyl]phenyl}cyclobutyl)-5-methyl[1,2,4]triazolo[1,5-a] pyrimidin-7-amine], for which the Ki was determined as 108 nM.
On to `Cc1cc(N[C@@H](c2ccc(C3CC3)c(F)c2)C2CC2)n2ncnc2n1` [Example 38, N-[(R)-Cyclopropyl(4-cyclopropyl-3-fluorophenyl)methyl]-5-methyl[1,2,4]triazolo[1,5-a] pyrimidin-7-amine], for which the inhibition constant Ki was determined as 20 nM.
On to `Cc1cc(NC2(c3ccc(C(F)(F)F)c(F)c3)COC2)n2ncnc2n1` [Example 198, N-(3-(3-Fluoro-4-(trifluoromethyl)phenyl)oxetan-3-yl)-5-methyl-[1,2,4]triazolo [1,5-a]pyrimidin-7-amine], for which the Ki amounted to 83 nM.
In the case of `Cc1cc(N[C@@H](c2ccc(C(F)(F)F)cc2)[C@@H](C)O)n2ncnc2n1` [Example 89, (1S,2R)-1-[(5-Methyl[1,2,4]triazolo[1,5-a]pyrimidin-7-yl)amino]-1-[4-(trifluoromethyl)phenyl]propan-2-ol], the inhibitory constant (Ki) was found to be 82 nM.
`Fc1cc(C2(Nc3cc(C4CC4)nc4ncnn34)CC2)ccc1OC(F)(F)F` [Example 71, 5-Cyclopropyl-N-{1-[3-fluoro-4-(trifluoromethoxy)phenyl]cyclo-propyl}[1,2,4]triazolo[1,5-a]pyrimidin-7-amine]: the Ki came out at 25 nM.
The result for `Cc1cc(NC(c2ccc(OC(F)(F)F)cc2F)C(C)(C)O)n2nc(C)nc2n1` (single isomer, unassigned) [Example 134, (1S or R)-1-[(2,5-Dimethyl[1,2,4]triazolo[1,5-a]pyrimidin-7-yl)amino]-1-[2-fluoro-4-(tri-fluoromethoxy)phenyl]-2-methylpropan-2-ol] reads more than 2960 nM.
Under `FCc1cc(NC2(c3ccc(C(F)(F)F)c(F)c3)CC2)n2ncnc2n1` [Example 81, 5-(Fluoromethyl)-N-{1-[3-fluoro-4-(trifluoromethyl)phenyl]cyclopropyl}[1,2,4]triazolo[1,5-a]pyrimidin-7-amine] stands 31 nM.
Regarding `Cc1cc(N[C@H](c2ccc(C(F)(F)F)cc2)C(C)(C)O)n2ncnc2n1` [Example 95, (1R)-2-Methyl-1-[(5-methyl [1,2,4]triazolo[1,5-a]pyrimidin-7-yl)amino]-1-[4-(trifluoromethyl)phenyl]propan-2-ol], the Ki is more than 2960 nM.
The result for `CC(C)(C)c1cc(NC(c2ccc(OC(F)(F)F)cc2F)C(C)(C)O)n2ncnc2n1` (single isomer, unassigned) [Example 149, (1R or S)-1-[(5-tert-butyl[1,2,4]triazolo[1,5-a]pyrimidin-7-yl)amino]-1-[2-fluoro-4-(trifluoro-methoxy)phenyl]-2-methylpropan-2-ol] reads more than 2960 nM.
The result for `CC(C)(O)C(Nc1cc(C(F)F)nc2ncnn12)c1ccc(OC(F)(F)F)c(F)c1` (single isomer, unassigned) [Example 188, (1R or S)-{[5-(Difluoromethyl) [1,2,4]triazolo [1,5-a]pyrimidin-7-yl]amino}-1-[3-fluoro-4-(trifluoromethoxy)phenyl]-2-methylpropan-2-ol] reads more than 2960 nM.
Turning to `CNc1nc2nc(C)cc(NC3(c4ccc(C(F)(F)F)c(F)c4)CC3)n2n1` [Example 257, N^7-{1-[3-Fluoro-4-(trifluoromethyl)phenyl]cyclopropyl}-N^2,5-dimethyl[1,2,4]triazolo[1,5-a]pyrimidine-2,7-diamine], the Ki worked out at 10 nM.
